IC50 data for one compound are collected here from article PMC8116641 (Archives of Virology, 2021).

pIC50: −log10 of the molar value.

The experiment has as its system influenza A virus A/Aichi/2/68 (H3N2) (Aichi (H3N2)). The experiment is described as follows: microbe, parasite or virus in culture. It counts as cell-based. The conditions noted are these: Influenza A virus, H3N2, MDCK, read-out: IC50 (50% inhibitory concentration).

Take `CC1(C)[C@H]2CC[C@]1(C)[C@H](OC(=O)C[N+](C)(C)C)C2.[I-]` [10a, N,N,N-Trimethyl-2-oxo-2-((1S,2R,4S)-1,7,7-trimethylbicyclo[2.2.1]heptan-2-yloxy)ethanaminium iodide]: the pIC50 is 4.77.
